In ChEMBL document CHEMBL3885881, “DrugMatrix”:

Species on record: Rattus norvegicus
Type: toxicity, organism-based, Sprague-Dawley
Conditions: in vivo, po, route oral GAVAGE, […]; for ABSOLUTE EOSINOPHIL / ABSOLUTE LYMPHOCYTE / ABSOLUTE MONOCYTE / ABSOLUTE SEGMENTED NEUTROPHIL / BASOPHIL / EOSINOPHIL / ERYTHROCYTE COUNT / HEMATOCRIT / HEMOGLOBIN / LEUKOCYTE COUNT / LYMPHOCYTE / MEAN CORPUSCULAR HEMOGLOBIN / MEAN CORPUSCULAR HEMOGLOBIN CONCENTRATION / MEAN CORPUSCULAR VOLUME / MONOCYTE / NEUTROPHIL / NUCLEATED RED BLOOD CELLS / PLATELET COUNT: tissue Blood; for ALANINE AMINOTRANSFERASE / ALBUMIN / ALKALINE PHOSPHATASE / ASPARTATE AMINOTRANSFERASE / BLOOD UREA NITROGEN / CARBON DIOXIDE / CHLORIDE / CHOLESTEROL / CREATINE PHOSPHOKINASE / CREATININE / GLUCOSE / LACTATE DEHYDROGENASE / LIPASE / PHOSPHORUS / POTASSIUM / SODIUM / TOTAL BILIRUBIN / TOTAL PROTEIN / URIC ACID: tissue Plasma
[1] = 0 mg/kg, 6 h, vehicle control, dose level Control, time 0.25 day
[2] = 0 mg/kg, 24 h, vehicle control, dose level Control, time 1 day
[3] = 130 mg/kg, 6 h, dose level Low, time 0.25 day

Description: DrugMatrix - Regimen: Single

In the case of CCOC(=O)C(C)(C)Oc1ccc(Cl)cc1 [CLOFIBRATE], the “ABSOLUTE EOSINOPHIL” value [1] is reported as 0 CELLS/uL, the “ABSOLUTE LYMPHOCYTE” value [1] is reported as 8631 CELLS/uL and the “ABSOLUTE MONOCYTE” value [1] is reported as 171.17 CELLS/uL. For the same compound, the “ABSOLUTE SEGMENTED NEUTROPHIL” value [1] was 1214.5 CELLS/uL, the BASOPHIL [1] was 0% and the EOSINOPHIL [1] was 0%. For the same compound, the “ERYTHROCYTE COUNT” value [1] was 5.42 x10E6/uL, the HEMATOCRIT [1] was 34.7% and the HEMOGLOBIN [1] was 13.67 G/DL. The “LEUKOCYTE COUNT” value [1] was 10.02 x10E3/uL, the LYMPHOCYTE [1] was 86.17% and the “MEAN CORPUSCULAR HEMOGLOBIN” value [1] was 25.27 pg. For the same compound, the “MEAN CORPUSCULAR HEMOGLOBIN CONCENTRATION” value [1] was 39.42 G/DL, the “MEAN CORPUSCULAR VOLUME” value [1] was 64.12 fL and the MONOCYTE [1] was 1.67%. For the same compound, the NEUTROPHIL [1] was 12.17%, the “NUCLEATED RED BLOOD CELLS” value [1] was 0 /100WBC and the “PLATELET COUNT” value [1] was 1050 x10E3/uL. For the same compound, the “ALANINE AMINOTRANSFERASE” value [1] was 61 u/L, the ALBUMIN [1] was 4.67 G/DL and the “ALKALINE PHOSPHATASE” value [1] was 312.5 u/L. The “ASPARTATE AMINOTRANSFERASE” value [1] was 117.5 u/L, the “BLOOD UREA NITROGEN” value [1] was 8.67 mg/dL and the “CARBON DIOXIDE” value [1] was 26.33 mmol/L. The CHLORIDE [1] was 100.5 MEQ/L, the CHOLESTEROL [1] was 72 mg/dL and the “CREATINE PHOSPHOKINASE” value [1] was 283.33 u/L. For the same compound, the CREATININE [1] was 0.28 mg/dL, the GLUCOSE [1] was 172 mg/dL and the “LACTATE DEHYDROGENASE” value [1] was 95.33 u/L. The LIPASE [1] was 10.17 u/L, the PHOSPHORUS [1] was 9.9 mg/dL and the POTASSIUM [1] was 5.75 MEQ/L. The SODIUM [1] was 142.4 MEQ/L, the “TOTAL BILIRUBIN” value [1] was 0.3 mg/dL and the “TOTAL PROTEIN” value [1] was 5.43 G/DL. The “URIC ACID” value [1] was 0.73 mg/dL, the “ABSOLUTE EOSINOPHIL” value [2] was 90.83 CELLS/uL and the “ABSOLUTE LYMPHOCYTE” value [2] was 14725.17 CELLS/uL. The “ABSOLUTE MONOCYTE” value [2] was 220 CELLS/uL, the “ABSOLUTE SEGMENTED NEUTROPHIL” value [2] was 1080.67 CELLS/uL and the BASOPHIL [2] was 0%. For the same compound, the EOSINOPHIL [2] was 0.67%, the “ERYTHROCYTE COUNT” value [2] was 5.3 x10E6/uL and the HEMATOCRIT [2] was 33.4%. For the same compound, the HEMOGLOBIN [2] was 13.4 G/DL, the “LEUKOCYTE COUNT” value [2] was 16.12 x10E3/uL and the LYMPHOCYTE [2] was 91.17%. For the same compound, the “MEAN CORPUSCULAR HEMOGLOBIN” value [2] was 25.3 pg, the “MEAN CORPUSCULAR HEMOGLOBIN CONCENTRATION” value [2] was 40.12 G/DL and the “MEAN CORPUSCULAR VOLUME” value [2] was 63.05 fL. The MONOCYTE [2] was 1.5%, the NEUTROPHIL [2] was 6.67% and the “NUCLEATED RED BLOOD CELLS” value [2] was 0 /100WBC. The “PLATELET COUNT” value [2] was 1062 x10E3/uL, the “ALANINE AMINOTRANSFERASE” value [2] was 69 u/L and the ALBUMIN [2] was 4.33 G/DL. For the same compound, the “ALKALINE PHOSPHATASE” value [2] was 269 u/L, the “ASPARTATE AMINOTRANSFERASE” value [2] was 83.67 u/L and the “BLOOD UREA NITROGEN” value [2] was 14 mg/dL. The “CARBON DIOXIDE” value [2] was 29 mmol/L, the CHLORIDE [2] was 100.83 MEQ/L and the CHOLESTEROL [2] was 66.67 mg/dL. For the same compound, the “CREATINE PHOSPHOKINASE” value [2] was 355 u/L, the CREATININE [2] was 0.18 mg/dL and the GLUCOSE [2] was 161.33 mg/dL. The “LACTATE DEHYDROGENASE” value [2] was 123.33 u/L, the LIPASE [2] was 10.67 u/L and the PHOSPHORUS [2] was 8.83 mg/dL. The POTASSIUM [2] was 6.06 MEQ/L, the SODIUM [2] was 142.45 MEQ/L and the “TOTAL BILIRUBIN” value [2] was 0.2 mg/dL. For the same compound, the “TOTAL PROTEIN” value [2] was 5.72 G/DL, the “URIC ACID” value [2] was 1.27 mg/dL and the “ABSOLUTE EOSINOPHIL” value [3] was 53.33 CELLS/uL. For the same compound, the “ABSOLUTE LYMPHOCYTE” value [3] was 12668.17 CELLS/uL, the “ABSOLUTE MONOCYTE” value [3] was 233.17 CELLS/uL and the “ABSOLUTE SEGMENTED NEUTROPHIL” value [3] was 1278.67 CELLS/uL. For the same compound, the BASOPHIL [3] was 0%, the EOSINOPHIL [3] was 0.33% and the “ERYTHROCYTE COUNT” value [3] was 5.56 x10E6/uL. For the same compound, the HEMATOCRIT [3] was 34.18%, the HEMOGLOBIN [3] was 13.43 G/DL and the “LEUKOCYTE COUNT” value [3] was 14.23 x10E3/uL. For the same compound, the LYMPHOCYTE [3] was 88.83%, the “MEAN CORPUSCULAR HEMOGLOBIN” value [3] was 24.17 pg and the “MEAN CORPUSCULAR HEMOGLOBIN CONCENTRATION” value [3] was 39.33 G/DL. For the same compound, the “MEAN CORPUSCULAR VOLUME” value [3] was 61.53 fL, the MONOCYTE [3] was 1.67% and the NEUTROPHIL [3] was 9.17%. The “NUCLEATED RED BLOOD CELLS” value [3] was 0 /100WBC, the “PLATELET COUNT” value [3] was 1136.67 x10E3/uL and the “ALANINE AMINOTRANSFERASE” value [3] was 40.17 u/L. For the same compound, the ALBUMIN [3] was 4.38 G/DL, the “ALKALINE PHOSPHATASE” value [3] was 384.83 u/L and the “ASPARTATE AMINOTRANSFERASE” value [3] was 76.67 u/L. The “BLOOD UREA NITROGEN” value [3] was 7.4 mg/dL, the “CARBON DIOXIDE” value [3] was 25 mmol/L and the CHLORIDE [3] was 101.4 MEQ/L. The CHOLESTEROL [3] was 63.33 mg/dL, the “CREATINE PHOSPHOKINASE” value [3] was 249.67 u/L and the CREATININE [3] was 0.36 mg/dL. The GLUCOSE [3] was 139.83 mg/dL, the “LACTATE DEHYDROGENASE” value [3] was 146.17 u/L and the LIPASE [3] was 10.2 u/L. For the same compound, the PHOSPHORUS [3] was 10.1 mg/dL, the POTASSIUM [3] was 5.97 MEQ/L and the SODIUM [3] was 142.94 MEQ/L. For the same compound, the “TOTAL BILIRUBIN” value [3] was 0.38 mg/dL, the “TOTAL PROTEIN” value [3] was 5.73 G/DL and the “URIC ACID” value [3] was 0.96 mg/dL.
